Test results from patent US11559512B2, “Composition for prevention, alleviation, and/or treatment of heat illness” (priority 2017, dated 2023).
“Also recorded” adds a separate entry of the source.

What was measured:
Assay type in all cases: cell-based, human
ABCD3 = ABCD3 expression in HUVECs, antibody staining, confocal microscopy; conditions: usual culture and heat stress load (40° C. for 3 days), vs DMSO
Procedure: (§1) Then, six 35-mm dishes were provided, and 2 mL/dish of the solution with the adjusted HUVEC density was inoculated. Auraptene (10 mM) and tangeretin (10 mM) were each added at 2 μL (final concentration: 10 μM)/dish to two dishes. Also, DMSO was added at 2 μL/dish to the remaining 2 dishes to prepare a control.
(§2) The supernatant of the HUVECs cultured in each 35-mm dish was removed, and 2 mL/dish of 4% paraformaldehyde in a phosphate buffer solution was added. The cells were left standing at room temperature for 1 hour.
(§3) The solution was removed, and then, the cells were rinsed twice. 2 mL/dish of 0.5% Triton-X00 (Wako Pure Chemical Industries, Ltd.) in PBS was added, and the cells were left standing at room temperature for 5 minutes. The solution was removed, and then, the cells were rinsed twice. 1 mL/dish of an anti-ABCD3 antibody, an anti-PPARα antibody or an anti-PPARγ antibody, each of which was diluted 150-fold with a FACS buffer, was added, and the cells were left standing at room temperature for 2 hours for reaction.
The solution was removed, and then, the cells were rinsed twice. […] Two drops of Diamond Antifade Mountant with DAPI were added to the cells, and a round glass cover was put on the cells, followed by fluorescence photographing under a confocal laser scanning microscope.

IL-6 = IL-6 concentration in supernatant of lymphocytes under heat stress load (ELISA)
Procedure: 10 mL of human peripheral blood was collected and anti-coagulated with heparin, and 10 mL of PBS(−) was added thereto and stirred. 15 mL of Lymphocyte Separation Medium 1077 (PromoCell GmbH) was layered thereon so as not to mix blood thereinto, followed by blood separation at 1600 rpm for 30 minutes in a centrifuge. The mononuclear cell layer thus separated was collected into a dropper, added to 20 mL of a culture medium, and centrifuged at 1500 rpm for 5 minutes in a centrifuge. The supernatant was removed, and then, 20 mL of a culture medium was added to the cells and stirred. The cells were centrifuged again at 1500 rpm for 5 minutes in a centrifuge. The supernatant was removed, and then, 10 mL of a culture medium was added to the cells and stirred. The whole amount was added to a 10-cm dish and incubated at 37° C. for 1 hour in a 5% CO2 environment. […] The solution with the adjusted lymphocyte density was inoculated at 4 mL/well to 2 wells of each 6-well plate. […] Then, the supernatant was recovered into a 1.5 mL Eppendorf tube and centrifuged at 8000 rpm for 5 minutes in a centrifuge. The supernatant was recovered into a fresh 1.5-mL Eppendorf tube and preserved at −20° C.
Human IL-6 of an ELISA kit was used in IL-6 measurement. 5× Coating Buffer A included in the assay kit was diluted 5-fold with distilled water. Capture Antibody diluted 200-fold with the Coating Buffer was added at 100 μL/well to a 96-well plate, and the plate was left standing overnight at 4° C.
The antibody solution was removed, and each well was washed four times. A very small amount of the reaction solution remaining in the plate was completely removed with Kim Towel. Then, ELISA Assay Diluent (BioLegend, Inc.) diluted 5-fold with distilled water was added at 200 μL/well, and the plate was left standing overnight at 4° C.
The solution was removed, and each well was washed four times. A very small amount of the reaction solution remaining in the plate was completely removed with Kim Towel. IL-6 standard protein was diluted with Assay Diluent to prepare dilution series of the IL-6 standard protein. The dilution series of the IL-6 standard protein and the 40° C. culture supernatant of the lymphocytes were added at 100 μL/well, and the plate was left standing at room temperature for 2 hours. The solution was removed, and each well was washed four times. A very small amount of the reaction solution remaining in the plate was completely removed with Kim Towel. Detection Antibody diluted 200-fold with Assay Diluent was added at 100 μL/well, and the plate was left standing at room temperature for 1 hour. […] The reaction was terminated by the addition of 2 N H2SO4 at 100 μL/well, followed by the absorbance measurement of the reaction solution in a plate reader at 450 nm.

PPARα = PPARα expression in HUVECs, antibody staining, confocal microscopy
Procedure: as §1, §2, §3
(§4) The solution was removed, and then, the cells were rinsed twice. 1 mL/dish of DyLight 649-labeled anti-Rabbit IgG antibody diluted 500-fold with a FACS buffer was added, and the cells were left standing at room temperature for 1 hour in the dark for reaction. The solution was removed, and then, the cells were rinsed twice. Two drops of Diamond Antifade Mountant with DAPI were added to the cells, and a round glass cover was put on the cells, followed by fluorescence photographing under a confocal laser scanning microscope.

PPARγ = PPARγ expression in HUVECs, antibody staining, confocal microscopy
Procedure: as §1, §2, §3, §4

[1] = HUVECs, 40° C. and 1 day, 10 μM, vs DMSO
[2] = Table 2 summary, HUVECs 40° C., 37° C. as comparative control

In the case of `CC(C)=CCC/C(C)=C/COc1ccc2ccc(=O)oc2c1` [auraptene, 7-geranyloxycoumarin], the “change in the expression of ABCD3” value (ABCD3) is reported as “change in the expression of ABCD3 was not observed; also recorded: not found”, the Pyrogenic factor (IL-6; Table 2 summary, 40° C., inflammatory cytokines, e.g. IL-6 and CCL-2) is reported as “Decreased” and the “IL-6 sample A” value (IL-6; peripheral blood lymphocytes sample A, 40° C., auraptene 10 μM, non-addition 10 ± 1.1) is reported as 5 ± 0.3 pg/mL. The “IL-6 sample B” value (IL-6; peripheral blood lymphocytes sample B, 40° C., auraptene 10 μM, non-addition 18 ± 0.8) was 10 ± 0.1 pg/mL, the “production of IL-6” value (IL-6; peripheral blood lymphocytes under heat stress load, vs DMSO, p<0.05) was “significantly suppressed” and the “expression of PPARα” value (PPARα; [1]) was “increase in the expression of PPARα”. The PPARα (PPARα; [2]) was “Increased”, the “expression of PPARγ” value (PPARγ; [1]) was “increase in the expression of PPARγ” and the PPARγ (PPARγ; [2]) was “Unchanged”.
